Read-outs that look alike come from different tables or passages of the source.
Tests used:
[1] = tested on: Phosphorylation of ERK1/2 in MIA PaCa-2 cells; assay: Phospho-ERK1/2 MSD assay in MIA PaCa-2 cells; format: cell-based; conditions: read-out: p-ERK IC50 (2 h; MIA PaCa-2), 2 h compound treatment
Method in brief: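 In the procedure, cells were plated a day ahead at 25,000 per well. Next, a dilution series of compound in growth medium was added for 2 or 4 h. EGF (10 ng/mL) stimulation for 10 min preceded washing and RIPA lysis. Lysate phospho-ERK1/2 was read by MSD, with IC50 derived by 4-parameter logistic analysis.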

[2] = molecular target: GDP-bound KRAS protein (aa 1-169), containing both G12C and C118A amino acid substitutions (Homo sapiens, UniProt P01116, C118A/G12C); assay: Coupled nucleotide exchange assay (SOS-mediated, AlphaScreen); format: biochemical; conditions: 5 min compound pre-incubation; for IC50: read-out: Coupled exchange IC50 (5 min)
Sequence of GDP-bound KRAS protein (aa 1-169), containing both G12C and C118A amino acid substitutions (P01116 1-169 isoform P01116-2 G12C/C118A): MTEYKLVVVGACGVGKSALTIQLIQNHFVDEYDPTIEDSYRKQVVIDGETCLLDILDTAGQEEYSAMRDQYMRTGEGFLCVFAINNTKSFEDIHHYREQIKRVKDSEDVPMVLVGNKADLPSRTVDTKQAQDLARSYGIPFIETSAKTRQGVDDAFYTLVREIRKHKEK

Compound	IC50 [1] [nM]	IC50 [2] [nM]	IC50 ([1]; Homo sapiens, MIA PaCa-2, 2 h) [nM]	Coupled exchange IC50 (5 min) [2]
C=CC(=O)N1CCN(c2nc(=O)n(-c3c(C)ccnc3C(C)C)c3nc(-c4c(N)cccc4F)c(Cl)cc23)[C@@H](C)C1 (atropisomer, axis not shown; (M)) [Example 73-1, (M)-7-(2-Amino-6-fluorophenyl)-6-chloro-1-(4-methyl-2-(2-propanyl)-3-pyridinyl)-4-((2S)-2-methyl-4-(2-propenoyl)-1-piperazinyl)pyrido[2,3-d]pyrimidin-2(1H)-one]	14	12		
C=CC(=O)N1CCN(c2nc(=O)n(-c3c(C)ccnc3C(C)C)c3nc(-c4cc(F)ccc4F)c(Cl)cc23)[C@@H](C)C1 (atropisomer, axis not shown; (M)) [Example 73-2, (M)-6-chloro-7-(2,5-difluorophenyl)-1-(4-methyl-2-(2-propanyl)-3-pyridinyl)-4-((2S)-2-methyl-4-(2-propenoyl)-1-piperazinyl)pyrido[2,3-d]pyrimidin-2(1H)-one]			101	0.067 | nda μM
C=CC(=O)N1CCN(c2nc(=O)n(-c3c(C)ccnc3C(C)C)c3nc(-c4cc(C)ccc4F)c(Cl)cc23)[C@@H](C)C1 (atropisomer, axis not shown; (M)) [Example 73-3, (M)-6-chloro-7-(2-fluoro-5-methylphenyl)-1-(4-methyl-2-(2-propanyl)-3-pyridinyl)-4-((2S)-2-methyl-4-(2-propenoyl)-1-piperazinyl)pyrido[2,3-d]pyrimidin-2(1H)-one]			40	0.031 | nda μM
C=CC(=O)N1CCN(c2nc(=O)n(-c3c(C)ccnc3C(C)C)c3nc(-c4cc(Cl)ccc4F)c(Cl)cc23)[C@@H](C)C1 (atropisomer, axis not shown; (M)) [Example 73-4, (M)-6-chloro-7-(5-chloro-2-fluorophenyl)-1-(4-methyl-2-(2-propanyl)-3-pyridinyl)-4-((2S)-2-methyl-4-(2-propenoyl)-1-piperazinyl)pyrido[2,3-d]pyrimidin-2(1H)-one]			62	0.047 | nda μM
C=CC(=O)N1CCN(c2nc(=O)n(-c3c(C)ccnc3C(C)C)c3nc(-c4cc(C#N)ccc4F)c(Cl)cc23)[C@@H](C)C1 (atropisomer, axis not shown; (M)) [Example 73-5, (M)-3-(6-chloro-1-(4-methyl-2-(2-propanyl)-3-pyridinyl)-4-((2S)-2-methyl-4-(2-propenoyl)-1-piperazinyl)-2-oxo-1,2-dihydropyrido[2,3-d]pyrimidin-7-yl)-4-fluorobenzonitrile]			228	0.184 | nda μM
C=CC(=O)N1CCN(c2nc(=O)n(-c3c(C)ccnc3C(C)C)c3nc(-c4cc(OC)ccc4F)c(Cl)cc23)[C@@H](C)C1 (atropisomer, axis not shown; (M)) [Example 73-6, (M)-6-chloro-7-(2-fluoro-5-methoxyphenyl)-1-(4-methyl-2-(2-propanyl)-3-pyridinyl)-4-((2S)-2-methyl-4-(2-propenoyl)-1-piperazinyl)pyrido[2,3-d]pyrimidin-2(1H)-one]			104	0.059 | nda μM
C=CC(=O)N1CCN(c2nc(=O)n(-c3c(C)ccnc3C(C)C)c3nc(-c4cc(OC(F)(F)F)ccc4F)c(Cl)cc23)[C@@H](C)C1 (atropisomer, axis not shown; (M)) [Example 73-7, (M)-6-chloro-7-(2-fluoro-5-(trifluoromethoxy)phenyl)-1-(4-methyl-2-(2-propanyl)-3-pyridinyl)-4-((2S)-2-methyl-4-(2-propenoyl)-1-piperazinyl)pyrido[2,3-d]pyrimidin-2(1H)-one]			375	0.241 | nda μM
C=CC(=O)N1CCN(c2nc(=O)n(-c3c(C)ccnc3C(C)C)c3nc(-c4cc(C(F)(F)F)ccc4F)c(Cl)cc23)[C@@H](C)C1 (atropisomer, axis not shown; (M)) [Example 73-8, (M)-6-chloro-7-(2-fluoro-5-(trifluoromethyl)phenyl)-1-(4-methyl-2-(2-propanyl)-3-pyridinyl)-4-((2S)-2-methyl-4-(2-propenoyl)-1-piperazinyl)pyrido[2,3-d]pyrimidin-2(1H)-one]			653	0.236 | nda μM
C=CC(=O)N1CCN(c2nc(=O)n(-c3c(C)ccnc3C(C)C)c3nc(-c4cc(C5CC5)ccc4F)c(Cl)cc23)[C@@H](C)C1 (atropisomer, axis not shown; (M)) [Example 73-9, (M)-6-chloro-7-(5-cyclopropyl-2-fluorophenyl)-1-(4-methyl-2-(2-propanyl)-3-pyridinyl)-4-((2S)-2-methyl-4-(2-propenoyl)-1-piperazinyl)pyrido[2,3-d]pyrimidin-2(1H)-one]			281	0.06 | nda μM
C=CC(=O)N1CCN(c2nc(=O)n(-c3c(C)ccnc3C(C)C)c3nc(-c4cc(C(=O)NC5CC5)ccc4F)c(Cl)cc23)[C@@H](C)C1 (atropisomer, axis not shown; (M)) [Example 73-10, (M)-3-(6-chloro-1-(4-methyl-2-(2-propanyl)-3-pyridinyl)-4-((2S)-2-methyl-4-(2-propenoyl)-1-piperazinyl)-2-oxo-1,2-dihydropyrido[2,3-d]pyrimidin-7-yl)-N-cyclopropyl-4-fluorobenzamide]			544	0.385 | nda μM
C=CC(=O)N1C[C@@H](C)N(c2nc(=O)n(-c3c(C)ccnc3C(C)C)c3nc(-c4c(N)cccc4F)c(Cl)cc23)[C@@H](C)C1 (atropisomer, axis not shown; (M)) [Example 73-12, (M)-7-(2-amino-6-fluorophenyl)-6-chloro-4-(cis-2,6-dimethyl-4-(2-propenoyl)-1-piperazinyl)-1-(4-methyl-2-(2-propanyl)-3-pyridinyl)pyrido[2,3-d]pyrimidin-2(1H)-one]			10	0.01 | nda μM
C=CC(=O)N1C[C@@H](C)N(c2nc(=O)n(-c3c(C)ccnc3C(C)C)c3nc(-c4c(O)cccc4F)c(Cl)cc23)[C@@H](C)C1 (atropisomer, axis not shown; (M)) [Example 73-13, (M)-6-chloro-4-(cis-2,6-dimethyl-4-(2-propenoyl)-1-piperazinyl)-7-(2-fluoro-6-hydroxyphenyl)-1-(4-methyl-2-(2-propanyl)-3-pyridinyl)pyrido[2,3-d]pyrimidin-2(1H)-one]			17	0.023 | nda μM
C=CC(=O)N1C[C@H](C)N(c2nc(=O)n(-c3c(C)ccnc3C(C)C)c3nc(-c4c(N)cccc4F)c(Cl)cc23)[C@@H](C)C1 (atropisomer, axis not shown; (M)) [Example 73-15, (M)-7-(2-amino-6-fluorophenyl)-6-chloro-4-((2S,6S)-2,6-dimethyl-4-(2-propenoyl)-1-piperazinyl)-1-(4-methyl-2-(2-propanyl)-3-pyridinyl)pyrido[2,3-d]pyrimidin-2(1H)-one]			4	0.015 | nda μM
C=CC(=O)N1C[C@H](C)N(c2nc(=O)n(-c3c(C)ccnc3C(C)C)c3nc(-c4c(O)cccc4F)c(Cl)cc23)[C@@H](C)C1 (atropisomer, axis not shown; (M)) [Example 73-16, (M)-6-chloro-4-((2S,6S)-2,6-dimethyl-4-(2-propenoyl)-1-piperazinyl)-7-(2-fluoro-6-hydroxyphenyl)-1-(4-methyl-2-(2-propanyl)-3-pyridinyl)pyrido[2,3-d]pyrimidin-2(1H)-one]			7	0.019 | nda μM
C=CC(=O)N1C[C@@H](C)N(c2nc(=O)n(-c3c(C)ccnc3C(C)C)c3nc(-c4c(O)cccc4F)c(F)cc23)[C@@H](C)C1 (atropisomer, axis not shown; (M)) [Example 75-1, (M)-4-(cis-2,6-Dimethyl-4-(2-propenoyl)-1-piperazinyl)-6-fluoro-7-(2-fluoro-6-hydroxyphenyl)-1-(4-methyl-2-(2-propanyl)-3-pyridinyl)pyrido[2,3-d]pyrimidin-2(1H)-one]	49	48		
C=CC(=O)N1CCN(c2nc(=O)n(-c3c(C)ccnc3C(C)C)c3nc(-c4ccccc4F)c(Cl)cc23)C[C@H]1C (atropisomer, axis not shown; (M)) [Example 78-1, (M)-6-Chloro-7-(2-fluorophenyl)-1-(4-methyl-2-(2-propanyl)-3-pyridinyl)-4-((3R)-3-methyl-4-(2-propenoyl)-1-piperazinyl)pyrido[2,3-d]pyrimidin-2(1H)-one]	49	213		
C=CC(=O)N1CCN(c2nc(=O)n(-c3c(C)ccnc3C(C)C)c3nc(-c4c(C)ccc5[nH]ncc45)c(Cl)cc23)[C@@H](C)C1 (atropisomer, axis not shown; (M)) [Example 82-1, (M)-6-Chloro-7-(5-methyl-1H-indazol-4-yl)-1-(4-methyl-2-(2-propanyl)-3-pyridinyl)-4-((2S)-2-methyl-4-(2-propenoyl)-1-piperazinyl)pyrido[2,3-d]pyrimidin-2(1H)-one]	106	77		
C=CC(=O)N1CCN(c2nc(=O)n(-c3c(C)ccnc3C(C)C)c3nc(-c4c(O)cccc4F)c(Cl)cc23)C[C@H]1C (atropisomer, axis not shown; (M)) [Example 129, (M)-6-Chloro-7-(2-fluoro-6-hydroxyphenyl)-1-(4-methyl-2-(2-propanyl)-3-pyridinyl)-4-((3R)-3-methyl-4-(2-propenoyl)-1-piperazinyl)pyrido[2,3-d]pyrimidin-2(1H)-one]			95	0.045 | nda μM

Source: US11090304B2 (Amgen Inc., priority 2018, dated 2021)
